ChEMBL document CHEMBL1135778, “Synthesis and molecular modeling of new 1-aryl-3-[4-arylpiperazin-1-yl]-1-propane derivatives with high affinity at the serotonin transporter and at 5-HT(1A) receptors” (J Med Chem, 2002)
pIC50, pKi: −log10 of the molar value.

Key:
[1] = target: T1, 5-hydroxytryptamine receptor 1A (Rattus norvegicus) (UniProt P19327); assay: Percent increase of R(+)-8-OH-DPAT stimulated [35S]GTP-gamma-S, binding to 5-hydroxytryptamine 1A receptor in isolated rat hippocampal membranes; type: functional, cell membranes; settings: Membrane
T1 sequence (whole entry): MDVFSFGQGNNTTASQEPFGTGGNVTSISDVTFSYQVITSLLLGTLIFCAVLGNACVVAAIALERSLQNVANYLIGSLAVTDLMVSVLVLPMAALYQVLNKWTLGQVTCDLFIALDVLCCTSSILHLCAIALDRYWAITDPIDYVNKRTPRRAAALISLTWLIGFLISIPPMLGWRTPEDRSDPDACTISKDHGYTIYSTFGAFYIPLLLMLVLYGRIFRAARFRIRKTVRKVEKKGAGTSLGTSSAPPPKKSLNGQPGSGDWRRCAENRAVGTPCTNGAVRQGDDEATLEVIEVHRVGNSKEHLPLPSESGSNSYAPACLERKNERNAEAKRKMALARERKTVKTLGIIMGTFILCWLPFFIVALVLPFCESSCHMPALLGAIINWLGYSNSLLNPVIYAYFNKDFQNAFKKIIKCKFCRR

[2] = target: T1, 5-hydroxytryptamine receptor 1A (Rattus norvegicus); assay: Antagonist activity to stimulate binding of [35S]GTP-gamma-S, to 5-hydroxytryptamine 1A receptor in isolated rat hippocampal membranes; type: functional, cell membranes; settings: Membrane, scale: (fM of GTP-gammaS bound)
[3] = target: T1, 5-hydroxytryptamine receptor 1A (Rattus norvegicus); assay: Inhibition of (+)-8-OH-DPAT stimulated [35S]GTP-gamma-S, binding in rat hippocampal membranes; type: functional, cell membranes; settings: Hippocampus, Membrane, scale: (fM of GTP-gammaS bound)
[4] = target: T1, 5-hydroxytryptamine receptor 1A (Rattus norvegicus); assay: Antagonist activity to stimulate binding of [35S]-GTP-gamma S binding to 5-hydroxytryptamine 1A receptor in isolated rat hippocampal membranes; type: functional, cell membranes; settings: Membrane, scale: (fM of GTP-gammaS bound)
[5] = target: T2, 5-hydroxytryptamine receptor 1A (Rattus norvegicus, UniProt P19327); assay: Binding affinity towards 5-hydroxytryptamine 1A receptor in rat frontal cortex homogenates; type: tissue-based
T2 sequence (P19327 whole entry): T1 sequence (whole entry)

[6] = target: Sodium-dependent serotonin transporter (Rattus norvegicus, UniProt P31652); assay: Binding affinity towards Serotonin transporter (5-HTT) in rat frontal cortex homogenates; type: tissue-based
Chain of Sodium-dependent serotonin transporter (P31652 whole entry): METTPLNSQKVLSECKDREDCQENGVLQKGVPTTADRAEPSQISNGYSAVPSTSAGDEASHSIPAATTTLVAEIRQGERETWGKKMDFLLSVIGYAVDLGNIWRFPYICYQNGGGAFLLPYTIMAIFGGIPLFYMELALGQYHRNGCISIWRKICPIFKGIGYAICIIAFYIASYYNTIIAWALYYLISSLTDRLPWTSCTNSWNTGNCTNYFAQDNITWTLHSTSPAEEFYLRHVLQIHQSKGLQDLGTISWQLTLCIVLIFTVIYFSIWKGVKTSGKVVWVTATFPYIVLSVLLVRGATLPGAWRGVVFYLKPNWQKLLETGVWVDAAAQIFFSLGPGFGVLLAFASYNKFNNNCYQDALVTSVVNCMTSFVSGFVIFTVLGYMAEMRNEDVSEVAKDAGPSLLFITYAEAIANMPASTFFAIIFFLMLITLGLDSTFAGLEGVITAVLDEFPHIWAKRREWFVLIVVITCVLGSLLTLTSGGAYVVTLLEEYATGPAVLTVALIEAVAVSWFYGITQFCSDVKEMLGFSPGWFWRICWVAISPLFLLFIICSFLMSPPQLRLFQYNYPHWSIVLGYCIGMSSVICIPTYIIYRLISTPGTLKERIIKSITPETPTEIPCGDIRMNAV

[7] = target: T3, 5-hydroxytryptamine receptor 1A (Mus musculus) (UniProt Q64264); assay: Antagonist activity at 5-hydroxytryptamine 1A receptor against (+)-8-OH-DPAT induced hypothermia in mice at 10 mg/kg after 15 min; type: functional, organism-based; design: dose 10 mg/kg
T3 sequence (whole entry): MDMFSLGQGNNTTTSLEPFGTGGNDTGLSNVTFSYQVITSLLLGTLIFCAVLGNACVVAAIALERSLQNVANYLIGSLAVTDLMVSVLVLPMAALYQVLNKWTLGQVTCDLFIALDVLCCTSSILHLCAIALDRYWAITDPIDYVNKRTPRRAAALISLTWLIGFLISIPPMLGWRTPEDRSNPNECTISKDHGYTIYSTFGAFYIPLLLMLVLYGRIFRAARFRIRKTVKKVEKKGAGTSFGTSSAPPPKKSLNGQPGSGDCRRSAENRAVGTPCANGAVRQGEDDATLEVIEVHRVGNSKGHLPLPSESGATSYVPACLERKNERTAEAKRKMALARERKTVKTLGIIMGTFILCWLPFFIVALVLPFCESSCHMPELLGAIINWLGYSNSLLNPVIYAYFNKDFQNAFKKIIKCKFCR

[8] = target: T3, 5-hydroxytryptamine receptor 1A (Mus musculus); assay: Antagonist activity at 5-hydroxytryptamine 1A receptor against (+)-8-OH-DPAT induced hypothermia in mice at 10 mg/kg after 60 min; type: functional, organism-based; design: dose 10 mg/kg
[9] = target: T3, 5-hydroxytryptamine receptor 1A (Mus musculus); assay: Antagonist activity at 5-hydroxytryptamine 1A receptor against (+)-8-OH-DPAT induced hypothermia in mice at 1 mg/kg after 15 min; type: functional, organism-based; design: dose 1 mg/kg
[10] = target: T3, 5-hydroxytryptamine receptor 1A (Mus musculus); assay: Antagonist activity at 5-hydroxytryptamine 1A receptor against (+)-8-OH-DPAT induced hypothermia in mice at 1 mg/kg after 30 min; type: functional, organism-based; design: dose 1 mg/kg
[11] = target: T3, 5-hydroxytryptamine receptor 1A (Mus musculus); assay: Antagonist activity at 5-hydroxytryptamine 1A receptor against (+)-8-OH-DPAT induced hypothermia in mice at 1 mg/kg after 60 min; type: functional, organism-based; design: dose 1 mg/kg
[12] = target: T3, 5-hydroxytryptamine receptor 1A (Mus musculus); assay: Antagonist activity at 5-hydroxytryptamine 1A receptor against (+)-8-OH-DPAT induced hypothermia in mice at 10 mg/kg after 30 min; type: functional, organism-based; design: dose 10 mg/kg
[13] = target: T2, 5-hydroxytryptamine receptor 1A; assay: Inhibition of (+)-8-OH-DPAT stimulated [35S]GTP-gamma-S, binding to 5-hydroxytryptamine 1A receptor in hippocampal membranes; type: functional, cell membranes
[14] = target: T1, 5-hydroxytryptamine receptor 1A (Rattus norvegicus); assay: Percent inhibition of (+)-8-OH-DPAT stimulated [35S]GTP-gamma-S, binding to 5-hydroxytryptamine 1A receptor in hippocampal membranes; type: functional, cell membranes; design: concentration or dose not given beside the values; settings: concentration not given here

Structure (SMILES) | Increase [1] | Basal [2] | Basal [3] | Max [3] | Max [4] | pKi [5] | pKi [6] | pKi ([5]; read-out: Ki) | Change in body temperature [7] | Change in body temperature [8] | Change in body temperature [9] | Change in body temperature [10] | Change in body temperature [11] | Change in body temperature [12] | pIC50 [13] | inhibition [14]
CCCN(CCC)C1CCc2cccc(O)c2C1 (stereo not given) | 91.8% | 13.5 | 13 | 23.8 | 25.9 |  |  |  |  |  |  |  |  |  |  | 
OC(CCN1CCN(c2cccc3c2OCCCO3)CC1)c1csc2ccccc12 (stereo not given) |  |  |  |  |  | 8.72 | 7.11 |  |  |  |  |  |  |  |  | 
OC(CCN1CCN(c2cccc3c2OCCO3)CC1)c1csc2ccccc12 (stereo not given) | 3.4% | 15.6 | 18.5 | 19.1 | 16.1 |  | 7.30 | 8.24 | -1.38 °C | -0.5 °C | -2.9 °C | -2.47 °C | -1.94 °C | -1.03 °C | 7.25 | 90%
OC(CCN1CCN(c2cccc3ccccc23)CC1)c1csc2ccc(F)cc12 (stereo not given) |  |  |  |  |  |  | 8.22 |  |  |  |  |  |  |  |  | 
OC(CCN1CCN(c2cccc3[nH]ccc23)CC1)c1csc2ccc(F)cc12 (stereo not given) | 35.5% | 10.1 | 11.2 | 10.1 | 13.7 |  |  |  | -0.95 °C | -0.95 °C | -3.28 °C | -3.61 °C | -2.72 °C | -0.89 °C | 7.79 | 110%
OC(CCN1CCN(c2cccc3ncccc23)CC1)c1csc2ccccc12 (stereo not given) |  |  |  |  |  |  | 7.49 | 7.43 |  |  |  |  |  |  |  | 
OC(CCN1CCN(c2cccc3cccnc23)CC1)c1csc2ccc(F)cc12 (stereo not given) | 71.4% | 13.9 |  |  | 23.9 |  |  |  |  |  |  |  |  |  |  | 
OC(CCN1CCN(c2cccc3ccccc23)CC1)c1csc2ccccc12 (stereo not given) |  |  |  |  |  |  | 7.09 | 7.18 |  |  |  |  |  |  |  | 
OC(CCN1CCN(c2cccc3c2OCO3)CC1)c1csc2ccc(F)cc12 (stereo not given) |  |  |  |  |  |  | 7.24 | 8.03 |  |  |  |  |  |  |  | 
OC(CCN1CCN(c2cccc3cccnc23)CC1)c1csc2ccccc12 (stereo not given) | 31% | 11.9 | 16.4 | 19.7 | 15.6 |  | 7.62 | 8.20 | -0.8 °C | -0.2 °C | -2.38 °C | -1.86 °C | -1.09 °C | -0.52 °C | 7.74 | 69%
OC(CCN1CCN(c2cccc3c2OCCCO3)CC1)c1csc2ccc(F)cc12 (stereo not given) | 22.8% | 14.4 | 18.7 | 20.4 | 17.7 |  | 7.67 | 8.52 |  |  |  |  |  |  | 6.44 | 84%
OC(CCN1CCN(c2cnc3ccccc3c2)CC1)c1csc2ccccc12 (stereo not given) |  |  |  |  |  |  | 8.38 | 6.00 |  |  |  |  |  |  |  | 
OC(CCN1CCN(c2ccc3sccc3c2)CC1)c1csc2ccccc12 (stereo not given) |  |  |  |  |  |  | 8.49 | 6.04 |  |  |  |  |  |  |  | 
OC(CCN1CCN(c2cccc3[nH]ccc23)CC1)c1csc2ccccc12 (stereo not given) | 26.3% | 13.4 | 12.8 | 13.9 | 16.9 |  |  |  | -1.03 °C | -0.8 °C | -2.08 °C | -1.59 °C | -1.13 °C | 0.84 °C | 7.51 | 90%
OC(CCN1CCN(c2cccc3c2OCCO3)CC1)c1csc2ccc(F)cc12 (stereo not given) | 17.9% | 11.9 | 19.1 | 18.9 | 14 |  | 7.80 |  | -1.33 °C | -0.84 °C | -1.49 °C | -1.04 °C | -1.04 °C | -0.72 °C | 7.51 | 101%
